In brackets after ≈: the same amount, converted by molar mass. Where a SMILES comes first, the peptide text is derived from it.
Key:
[1] = system: Escherichia coli (ATCC 25922); assay: MIC assay in liquid medium (twofold dilutions) against E. coli; type: cell-based; conditions: lowest concentration in twofold dilutions with no growth; 5×10^5 CFU/ml, Müller-Hinton broth, 37°C, 18 hours, read by eye; duplicate or triplicate, min–max if variable
Description: (§1) Seventeen predicted and recovered peptides were de novo synthesized using solid-phase technology by CASLO Laboratory ApS (Lyngby, Denmark) and delivered as HPLC-purified (>95%) trifluoracetate (TFA) salts. The peptide salts were stored as 5.12 mM stock solutions in 0.01% (V/V) acetic acid/0.2% (m/V) BSA. Peptides were tested against Escherichia coli (ATCC 25922) and Pseudomonas aeruginosa (ATCC 15692), Staphylococcus aureus (ATCC 25923), Micrococcus luteus, Saccharomyces cerevisiae, a protozoan parasite (Trypanosoma brucei brucei), mouse (Mus musculus) red blood cells and mouse spleen tissue cultures (containing 50–60% B-cells, ∼25–30% T-cells, and 5% myeloid cells). All assays were performed in duplicate or triplicate.
(§2) Activity against the bacteria and fungus was measured by assessing the lowest peptide concentration in a series of twofold dilutions at which no growth was detected (known as the minimum inhibitory concentration, MIC). Bacterial and yeast cultures (5×10^5 colony forming units/ml) were prepared in Müller-Hinton (MH) broth and Luria-Bertani (LB) broth respectively and transferred to serial dilutions of peptides ranging from 512 or 256 µM down to 1 or 0.5 µM in 96-well polypropylene plates. After incubation at 37°C (bacteria) or 30°C (S. cerevisiae) for 18 hours, growth of the cultures was checked by eye. In addition to MIC, we determined minimum microbicidal concentrations (MMC) by inoculating samples of the MIC assays on agar plates lacking peptides and checking for overnight growth. In all cases, MIC and MMC were identical.

[2] = system: Trypanosoma brucei brucei AnTat1.1 bloodstream parasites; assay: Trypanolytic activity (LC95, 30 minutes); type: cell-based; conditions: lowest concentration killing at least 95% of parasites after 30 minutes; PSG buffer with 5% FCS, light microscope count; min–max of repeated tests
Description: as §1
Activity against T. brucei parasites was assessed as the minimum concentration in a series of twofold dilutions required to kill 95% of parasites in 30 minutes (LC95). Frozen stabilates of Trypanosoma brucei brucei AnTat1.1 bloodstream parasites were expanded by infection of C57Black/6 mice (Janvier). Mice with systemic parasitaemia (typically 4–5 days post infection) were exsanguinated and parasites were purified from heparinized blood by DEAE-cellulose (DE52, Whatman) chromatography. Collected parasites were washed twice with Phosphate-Saline-Glucose buffer (PSG-buffer) and enumerated microscopically using a Bürker hematocytometer. The DEAE52-purified parasites (stock: 10^6 parasites/ml PSG buffer containing 5% FCS) were added to polypropylene 96-well plates containing the serial peptide dilutions to obtain total volumes of 200 µl. After incubation for 30 minutes, trypanolytic activity was assessed using a light microscope by calculating the percentage of dead parasites in a minimum of 200 counted cells.

[3] = system: T-lymphocytes (naive C57Black/6 splenocytes); assay: Inhibition of Concanavalin A-induced T-cell proliferation in spleen cell cultures; type: cell-based, Mus musculus; conditions: lowest concentration causing at least 50% inhibition of Concanavalin A-induced T-cell proliferation; 2×10^5 splenocytes, 24 h + 18 h [3H]thymidine, 37°C; min–max if variable
Description: as §1
Activity against T-lymphocytes was assessed as the lowest peptide concentration in a series of twofold dilutions causing at least 50% inhibition of Concanavalin A-induced T-cell proliferation (IC50). Solutions containin 2×10^5 naive C57Black/6 splenocytes in the presence of 2.5 µg Concanavalin A were added to polypropylene 96-well plates containing the serial peptide dilutions to obtain total volumes of 100 µl. After incubation for 24 hours at 37°C in a humidified atmosphere, the cells were pulsed with [^3H]thymidine and incubated for an additional 18 hours. The amount of [^3H]thymidine incorporation was assessed by a β-counter as a measure of cell proliferation and the percentage of proliferation inhibition for each peptide concentration was calculated as 100×(1−(Tobs/T100%)), where Tobs is the [^3H]thymidine level measured for the peptide concentration, and T100% is the [^3H]thymidine level measured for Concanavalin-A-induced cell proliferation in the absence of peptide (representing 100% proliferation).

[4] = system: Staphylococcus aureus (ATCC 25923); assay: MIC assay in liquid medium (twofold dilutions) against S. aureus; type: cell-based; conditions: lowest concentration in twofold dilutions with no growth; 5×10^5 CFU/ml, Müller-Hinton broth, 37°C, 18 hours, read by eye; duplicate or triplicate, min–max if variable
Description: as §1, §2

[5] = system: Pseudomonas aeruginosa (ATCC 15692); assay: MIC assay in liquid medium (twofold dilutions) against P. aeruginosa; type: cell-based; conditions: lowest concentration in twofold dilutions with no growth; 5×10^5 CFU/ml, Müller-Hinton broth, 37°C, 18 hours, read by eye; duplicate or triplicate, min–max if variable
Description: as §1, §2

[6] = system: Saccharomyces cerevisiae; assay: MIC assay in liquid medium (twofold dilutions) against S. cerevisiae; type: cell-based; conditions: lowest concentration in twofold dilutions with no growth; 5×10^5 CFU/ml, Luria-Bertani broth, 30°C, 18 hours, read by eye; duplicate or triplicate, min–max if variable
Description: as §1, §2

[7] = system: mouse red blood cells; assay: Hemolysis of mouse red blood cells (HC50); type: cell-based; conditions: lowest concentration causing at least 50% hemolysis; mouse blood diluted 1/100 in RPMI, 37°C, 30 minutes, OD 550 nm; 100% = 1% Tween-20
Description: as §1
Activity against mouse red blood cells was examined by assessing the lowest peptide concentration in a series of twofold dilutions causing at least 50% hemolysis (HC50). Briefly, heparinized blood was obtained by cardiac puncture of mice euthanized via CO2. The blood was diluted 1/100 in RPMI and added to polypropylene 96-well plates containing the serial peptide dilutions to obtain total volumes of 100 µl. The plates were incubated at 37°C in a humidified atmosphere for 30 minutes and centrifuged at 1400 rpm for 2 minutes to pellet intact red blood cells allowing visual observation of hemolysis. Supernatants were subsequently transferred to 96-well flat-bottom plates to allow spectrophotometry using an ELISA reader (OD measured at 550 nm). The percentage of hemolyis for each peptide concentration was calculated as 100×(ODobs−OD0%)/(OD100%−OD0%), where ODobs is the OD measured for the peptide concentration, OD0% is the average OD in the absence of peptides (0% hemolysis), and OD100% is the average OD in the presence of 1% Tween-20 (100% hemolysis).

[8] = system: Micrococcus luteus; assay: MIC assay in liquid medium (twofold dilutions) against M. luteus; type: cell-based; conditions: lowest concentration in twofold dilutions with no growth; 5×10^5 CFU/ml, Müller-Hinton broth, 37°C, 18 hours, read by eye; duplicate or triplicate, min–max if variable
Description: as §1, §2

[9] = Hydrophobicity as % TFA/AcN solvent at HPLC elution time; type: physicochemical; conditions: chromatographic; expressed as % TFA/AcN solvent at HPLC elution time

Row | Compound | MIC E. coli [1] | LC95 T. brucei [2] | IC50 [3] | MIC S. aureus [4] | MIC P. aeruginosa [5] | MIC S. cerevisiae [6] | HC50 Erythrocytes [7] | MIC M. luteus [8] | Hydrophobicity [9]
1 | CC(C)C[C@H](NC(=O)[C@H](CC(C)C)NC(=O)[C@H](CC(N)=O)NC(=O)[C@H](CO)NC(=O)CNC(=O)[C@@H](NC(=O)[C@H](CCCCN)NC(=O)[C@H](CC(C)C)NC(=O)CNC(=O)[C@@H](NC(=O)[C@H](CCCCN)NC(=O)[C@H](CC(C)C)NC(=O)[C@H](CC(C)C)NC(=O)[C@H](CO)NC(=O)CNC(=O)[C@H](CC(C)C)NC(=O)[C@H](CC(C)C)NC(=O)[C@@H](N)CC(N)=O)[C@@H](C)O)C(C)C)C(N)=O [CPF-St7] (H-NLLGSLLKTGLKVGSNLL-NH2; N-terminus assumed) | 128 µM (≈ 235 µg/mL) | 2 to 64 µM | 128 µM | 32 µM (≈ 58.9 µg/mL) | >256 µM | 64 µM (≈ 118 µg/mL) | 256 µM | 2 µM (≈ 3.68 µg/mL) | 45,2 % TFA/AcN solvent
2 | CC[C@H](C)[C@H](NC(=O)[C@H](C)NC(=O)[C@H](CCCCN)NC(=O)[C@H](C)NC(=O)[C@H](C)NC(=O)[C@H](CCCCN)NC(=O)CNC(=O)[C@H](Cc1ccccc1)NC(=O)[C@H](C)NC(=O)[C@@H](NC(=O)CNC(=O)[C@H](C)NC(=O)[C@H](CCCCN)NC(=O)[C@@H](NC(=O)[C@H](C)NC(=O)[C@H](CCSC)NC(=O)CN)[C@@H](C)O)[C@@H](C)O)C(=O)N[C@H](C(=O)NCC(=O)N[C@@H](C)C(=O)N[C@@H](C)C(=O)N[C@@H](CC(C)C)C(N)=O)[C@@H](C)CC [PGLa-St2] (H-GMATKAGTAFGKAAKAIIGAAL-NH2; N-terminus assumed) | 16 µM (≈ 32.3 µg/mL) | 16 to 32 µM | 64 µM | >256 µM | 128 µM (≈ 258 µg/mL) | 64 µM (≈ 129 µg/mL) | >256 µM | 2 µM (≈ 4.04 µg/mL) | 42,6 % TFA/AcN solvent
3 | CC(C)C[C@H](NC(=O)CNC(=O)[C@H](C)NC(=O)[C@@H](NC(=O)[C@H](CC(N)=O)NC(=O)[C@H](CO)NC(=O)[C@H](CC(C)C)NC(=O)[C@H](CC(C)C)NC(=O)CN)C(C)C)C(=O)N[C@@H](CC(C)C)C(=O)N[C@@H](CCCCN)C(=O)N[C@@H](CCC(N)=O)C(=O)N[C@@H](Cc1ccccc1)C(=O)N[C@@H](C)C(=O)N[C@@H](CCCCN)C(=O)NCC(=O)NCC(=O)N[C@H](C(=O)N[C@@H](CC(N)=O)C(=O)N[C@@H](C)C(=O)N[C@H](C(=O)N[C@@H](CC(C)C)C(=O)N[C@@H](CC(N)=O)C(=O)N1CCC[C@H]1C(=O)N[C@@H](CCCCN)C(=O)O)C(C)C)C(C)C [XPF-St7] (H-GLLSNVAGLLKQFAKGGVNAVLNPK-OH) | 8 µM (≈ 20.1 µg/mL) |  | 16 µM | 128 µM (≈ 321 µg/mL) | 32 µM (≈ 80.3 µg/mL) | 32 µM (≈ 80.3 µg/mL) | >256 µM | 1 µM (≈ 2.51 µg/mL) | 
4 | CC[C@H](C)[C@H](NC(=O)[C@H](C)NC(=O)[C@H](CC(N)=O)NC(=O)[C@@H](NC(=O)CNC(=O)CNC(=O)[C@H](CCCCN)NC(=O)[C@H](C)NC(=O)[C@H](Cc1ccccc1)NC(=O)[C@H](CCCCN)NC(=O)[C@H](CCCCN)NC(=O)[C@H](C)NC(=O)[C@H](Cc1ccccc1)NC(=O)[C@H](CC(N)=O)NC(=O)[C@H](C)NC(=O)[C@@H](NC(=O)[C@H](CCCCN)NC(=O)[C@H](CO)NC(=O)[C@H](CCSC)NC(=O)[C@H](Cc1ccccc1)NC(=O)CN)C(C)C)C(C)C)C(=O)N[C@@H](CCSC)C(=O)N[C@@H](CC(N)=O)C(=O)N[C@@H](CCC(N)=O)C(=O)N[C@@H](CCCCN)C(=O)O [XPF-St8] (H-GFMSKVANFAKKFAKGGVNAIMNQK-OH) | 1 µM (≈ 2.69 µg/mL) |  | 16 µM | 128 µM (≈ 344 µg/mL) | 4 µM (≈ 10.7 µg/mL) | 8 µM (≈ 21.5 µg/mL) | 64 µM | 0,5 µM | 
5 | CC[C@H](C)[C@H](NC(=O)[C@H](Cc1ccccc1)NC(=O)CNC(=O)[C@H](CCCCN)NC(=O)[C@H](C)NC(=O)[C@H](Cc1ccccc1)NC(=O)[C@H](CCCCN)NC(=O)[C@H](CCCCN)NC(=O)[C@H](C)NC(=O)[C@H](CO)NC(=O)[C@H](Cc1c[nH]cn1)NC(=O)[C@H](C)NC(=O)[C@@H](NC(=O)[C@H](CCC(=O)O)NC(=O)[C@H](CCCCN)NC(=O)[C@H](CC(C)C)NC(=O)CN)C(C)C)C(=O)N[C@@H](CO)C(=O)NCC(=O)N[C@@H](CC(C)C)C(=O)N[C@H](C(=O)NCC(=O)N[C@@H](CO)C(=O)O)[C@@H](C)O [magainin-St1] (H-GLKEVAHSAKKFAKGFISGLTGS-OH) | 64 µM (≈ 149 µg/mL) |  | > 256 µM | >256 µM | >256 µM | 128 µM (≈ 299 µg/mL) | >256 µM | 32 µM (≈ 74.7 µg/mL) | 
6 | FIGALLGPLLNLLKa [PFQa-St1, homologue of pFQa encoded by xpf-St7] |  |  |  |  |  |  |  |  | 55,4 % TFA/AcN solvent
7 | GMATKAGTVLGKVTKAIIGAALa [PGLa-St3, predicted S. tropicalis skin peptide encoded by pgla-St3] |  |  |  |  |  |  |  |  | 39,2 % TFA/AcN solvent
8 | KLGFENFLVKALKTVMHVPTSPLLa [CPF-St6, predicted S. tropicalis skin peptide encoded by cpf-St6] | 16 µM | 16 to 256 µM | 32 to 64 µM | >256 µM | >256 µM | 64 µM | 256 µM | 4 µM | 35,5 % TFA/AcN solvent
9 | pQGLIGTLTAKQIKKa [levitide-St2, levitide-related peptide encoded by xpf-St5] |  |  |  |  |  |  |  |  | 35,0 % TFA/AcN solvent
10 | pQGLMGTLISKQMKKa [levitide-St1, levitide-related peptide encoded by xpf-St4] |  |  |  |  |  |  |  |  | 31,6 % TFA/AcN solvent

Reference: PMC3731216, “Origin and Functional Diversification of an Amphibian Defense Peptide Arsenal” (PLoS Genetics, 2013)
